# Assay results as given in patent US12077503B2, “Substituted cyclic amides and their use as herbicides” (FMC CORPORATION, priority 2015, dated 2024).
# What was measured:
# Format in all cases: in vivo
# [1] = tested on: barnyardgrass (Echinochloa crus-galli); test: Test G Post-Emergence Protocol; settings: Echinochloa crus-galli, post-emergence, 312 h; for pest or weed control at 15.625 g/ha: 15.625 g ai/ha, evaluated after 13 days (100=total damage to plant; 0=no damage to plant), read-out: Barnyardgrass damage rating; for pest or weed control at 62.5 g/ha: 62.5 g ai/ha, read-out: Barnyardgrass damage rating (100=total damage to plant; 0=no damage to plant); for pest or weed control at 62.5 g/ha / pest or weed control at 250 g/ha: evaluated after 13 days; for pest or weed control at 250 g/ha: 250 g ai/ha, read-out: damage to plant, Barnyardgrass (100=total damage to plant; 0=no damage to plant)
# Summary of the method: (§1)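 Seedlings grown 8 days in soil in a glasshouse (24/16 °C day/night, 14 h light, 65% humidity) were sprayed post-emergence with compound in acetone/water 50:50 plus 0.5% Tween 20 at 15.625, 62.5 or 250 g/ha. Damage was scored after 13 days on a 0–100 scale (100 = total damage).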
# [2] = tested on: velvetleaf (Abutilon theophrasti); test: Test G Post-Emergence Protocol; settings: Abutilon theophrasti, post-emergence, 312 h; for pest or weed control at 15.625 g/ha: 15.625 g ai/ha, evaluated after 13 days (100=total damage to plant; 0=no damage to plant), read-out: Velvetleaf damage rating; for pest or weed control at 62.5 g/ha: 62.5 g ai/ha, read-out: Velvetleaf damage rating (100=total damage to plant; 0=no damage to plant); for pest or weed control at 62.5 g/ha / pest or weed control at 250 g/ha: evaluated after 13 days; for pest or weed control at 250 g/ha: 250 g ai/ha, read-out: damage to plant, Velvetleaf (100=total damage to plant; 0=no damage to plant)
# Summary of the method: as §1
# [3] = tested on: ivy-leaved morning glory (Ipomoea hederacea); test: Test G Post-Emergence Protocol; settings: Ipomoea, post-emergence, 312 h; for pest or weed control at 15.625 g/ha: 15.625 g ai/ha, evaluated after 13 days (100=total damage to plant; 0=no damage to plant), read-out: Morningglory, Ivy-leaved damage rating; for pest or weed control at 62.5 g/ha: 62.5 g ai/ha, read-out: Morningglory, Ivy-leaved damage rating (100=total damage to plant; 0=no damage to plant); for pest or weed control at 62.5 g/ha / pest or weed control at 250 g/ha: evaluated after 13 days; for pest or weed control at 250 g/ha: 250 g ai/ha, read-out: damage to plant, Morningglory, Ivy-leaved (100=total damage to plant; 0=no damage to plant)
# Summary of the method: as §1
# corn (Zea mays) [4] = test: Test G Post-Emergence Protocol; settings: Zea mays, post-emergence, 312 h; for plant injury at 15.625 g/ha: 15.625 g ai/ha, evaluated after 13 days (100=total damage to plant; 0=no damage to plant), read-out: Corn damage rating; for plant injury at 62.5 g/ha: 62.5 g ai/ha, read-out: Corn damage rating (100=total damage to plant; 0=no damage to plant); for plant injury at 62.5 g/ha / plant injury at 250 g/ha: evaluated after 13 days; for plant injury at 250 g/ha: 250 g ai/ha, read-out: damage to plant, Corn (100=total damage to plant; 0=no damage to plant)
# Summary of the method: as §1
# [5] = tested on: redroot pigweed (Amaranthus retroflexus); test: Test G Post-Emergence Protocol; settings: Amaranthus retroflexus, post-emergence, 312 h; for pest or weed control at 15.625 g/ha: 15.625 g ai/ha, evaluated after 13 days (100=total damage to plant; 0=no damage to plant), read-out: Pigweed, Redroot damage rating; for pest or weed control at 62.5 g/ha: 62.5 g ai/ha, read-out: Pigweed, Redroot damage rating (100=total damage to plant; 0=no damage to plant); for pest or weed control at 62.5 g/ha / pest or weed control at 250 g/ha: evaluated after 13 days; for pest or weed control at 250 g/ha: 250 g ai/ha, read-out: damage to plant, Pigweed, Redroot (100=total damage to plant; 0=no damage to plant)
# Summary of the method: as §1
# [6] = tested on: giant foxtail (Setaria faberi); test: Test G Post-Emergence Protocol; settings: Setaria faberi, post-emergence, 312 h; for pest or weed control at 15.625 g/ha: 15.625 g ai/ha, evaluated after 13 days (100=total damage to plant; 0=no damage to plant), read-out: Foxtail, Giant damage rating; for pest or weed control at 62.5 g/ha: 62.5 g ai/ha, read-out: Foxtail, Giant damage rating (100=total damage to plant; 0=no damage to plant); for pest or weed control at 62.5 g/ha / pest or weed control at 250 g/ha: evaluated after 13 days; for pest or weed control at 250 g/ha: 250 g ai/ha, read-out: damage to plant, Foxtail, Giant (100=total damage to plant; 0=no damage to plant)
# Summary of the method: as §1
# [7] = tested on: barnyardgrass (Echinochloa crus-galli); test: Test G Pre-Emergence Protocol; settings: Echinochloa crus-galli, pre-emergence, 312 h, evaluated after 13 days; for pest or weed control at 15.625 g/ha: 15.625 g ai/ha, read-out: Barnyard grass damage rating (100=total damage to plant; 0=no damage to plant); for pest or weed control at 62.5 g/ha: 62.5 g ai/ha, 100=total damage to plant, 0=no damage to plant, read-out: plant damage rating, Barnyardgrass; for pest or weed control at 250 g/ha: 250 g ai/ha, read-out: Barnyardgrass damage rating (100=total damage to plant; 0=no damage to plant)
# Summary of the method: (§2)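 Pots of seeds in standard soil were grown for one day in a glasshouse (24/16 °C day/night, 14 h light, 65% humidity), then sprayed with compound in acetone/water 50:50 with 0.5% Tween 20 at 15.625, 62.5 or 250 g/ha. Damage was scored after 13 days on a 0 (none) to 100 (total) scale.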
# [8] = tested on: velvetleaf (Abutilon theophrasti); test: Test G Pre-Emergence Protocol; settings: Abutilon theophrasti, pre-emergence, 312 h, evaluated after 13 days; for pest or weed control at 15.625 g/ha: 15.625 g ai/ha; for pest or weed control at 15.625 g/ha / pest or weed control at 250 g/ha: read-out: Velvetleaf damage rating (100=total damage to plant; 0=no damage to plant); for pest or weed control at 62.5 g/ha: 62.5 g ai/ha, 100=total damage to plant, 0=no damage to plant, read-out: plant damage rating, Velvetleaf; for pest or weed control at 250 g/ha: 250 g ai/ha
# Summary of the method: as §2
# [9] = tested on: ivy-leaved morning glory (Ipomoea hederacea); test: Test G Pre-Emergence Protocol; settings: Ipomoea, pre-emergence, 312 h, evaluated after 13 days; for pest or weed control at 15.625 g/ha: 15.625 g ai/ha, read-out: Morning-glory, Ivy-leaved damage rating (100=total damage to plant; 0=no damage to plant); for pest or weed control at 62.5 g/ha: 62.5 g ai/ha, 100=total damage to plant, 0=no damage to plant, read-out: plant damage rating, Morningglory, Ivy-leaved; for pest or weed control at 250 g/ha: 250 g ai/ha, read-out: Morningglory, Ivy-leaved damage rating (100=total damage to plant; 0=no damage to plant)
# Summary of the method: as §2
# corn (Zea mays) [10] = test: Test G Pre-Emergence Protocol; settings: Zea mays, pre-emergence, 312 h, evaluated after 13 days; for plant injury at 15.625 g/ha: 15.625 g ai/ha; for plant injury at 15.625 g/ha / plant injury at 250 g/ha: read-out: Corn damage rating (100=total damage to plant; 0=no damage to plant); for plant injury at 62.5 g/ha: 62.5 g ai/ha, 100=total damage to plant, 0=no damage to plant, read-out: plant damage rating, Corn; for plant injury at 250 g/ha: 250 g ai/ha
# Summary of the method: as §2
# [11] = tested on: redroot pigweed (Amaranthus retroflexus); test: Test G Pre-Emergence Protocol; settings: Amaranthus retroflexus, pre-emergence, 312 h, evaluated after 13 days; for pest or weed control at 15.625 g/ha: 15.625 g ai/ha; for pest or weed control at 15.625 g/ha / pest or weed control at 250 g/ha: read-out: Pigweed, Redroot damage rating (100=total damage to plant; 0=no damage to plant); for pest or weed control at 62.5 g/ha: 62.5 g ai/ha, 100=total damage to plant, 0=no damage to plant, read-out: plant damage rating, Pigweed, Redroot; for pest or weed control at 250 g/ha: 250 g ai/ha
# Summary of the method: as §2
# [12] = tested on: giant foxtail (Setaria faberi); test: Test G Pre-Emergence Protocol; settings: Setaria faberi, pre-emergence, 312 h, evaluated after 13 days; for pest or weed control at 15.625 g/ha: 15.625 g ai/ha; for pest or weed control at 15.625 g/ha / pest or weed control at 250 g/ha: read-out: Foxtail, Giant damage rating (100=total damage to plant; 0=no damage to plant); for pest or weed control at 62.5 g/ha: 62.5 g ai/ha, 100=total damage to plant, 0=no damage to plant, read-out: plant damage rating, Foxtail, Giant; for pest or weed control at 250 g/ha: 250 g ai/ha
# Summary of the method: as §2
compound,measurement,setting,value
Cc1nc(NC(=O)[C@@H]2C(=O)N(C)C[C@H]2c2ccc(C(F)(F)F)cc2)ccc1F (racemic) [Compound 1613],pest or weed control at 15.625 g/ha,[1],0%
same,pest or weed control at 62.5 g/ha,[1],20%
same,pest or weed control at 250 g/ha,[1],60%
same,pest or weed control at 15.625 g/ha,[2],0%
same,pest or weed control at 62.5 g/ha,[2],20%
same,pest or weed control at 250 g/ha,[2],30%
same,pest or weed control at 15.625 g/ha,[3],0%
same,pest or weed control at 62.5 g/ha,[3],0%
same,pest or weed control at 250 g/ha,[3],0%
same,plant injury at 15.625 g/ha,corn (Zea mays) [4],0%
same,plant injury at 62.5 g/ha,corn (Zea mays) [4],0%
same,plant injury at 250 g/ha,corn (Zea mays) [4],0%
same,pest or weed control at 15.625 g/ha,[5],0%
same,pest or weed control at 62.5 g/ha,[5],50%
same,pest or weed control at 250 g/ha,[5],60%
same,pest or weed control at 15.625 g/ha,[6],20%
same,pest or weed control at 62.5 g/ha,[6],70%
same,pest or weed control at 250 g/ha,[6],80%
same,pest or weed control at 15.625 g/ha,[7],0%
same,pest or weed control at 62.5 g/ha,[7],0%
same,pest or weed control at 250 g/ha,[7],70%
same,pest or weed control at 15.625 g/ha,[8],0%
same,pest or weed control at 62.5 g/ha,[8],0%
same,pest or weed control at 250 g/ha,[8],10%
same,pest or weed control at 15.625 g/ha,[9],0%
same,pest or weed control at 62.5 g/ha,[9],0%
same,pest or weed control at 250 g/ha,[9],0%
same,plant injury at 15.625 g/ha,corn (Zea mays) [10],0%
same,plant injury at 62.5 g/ha,corn (Zea mays) [10],0%
same,plant injury at 250 g/ha,corn (Zea mays) [10],0%
same,pest or weed control at 15.625 g/ha,[11],0%
same,pest or weed control at 62.5 g/ha,[11],0%
same,pest or weed control at 250 g/ha,[11],10%
same,pest or weed control at 15.625 g/ha,[12],0%
same,pest or weed control at 62.5 g/ha,[12],50%
same,pest or weed control at 250 g/ha,[12],90%
CN1C[C@@H](c2ccc(C(F)(F)F)cc2)[C@H](C(=O)Nc2cc(O)nc(C(F)(F)F)n2)C1=O (racemic) [Compound 1614],pest or weed control at 15.625 g/ha,[1],0%
same,pest or weed control at 62.5 g/ha,[1],0%
same,pest or weed control at 250 g/ha,[1],0%
same,pest or weed control at 15.625 g/ha,[2],0%
same,pest or weed control at 62.5 g/ha,[2],0%
same,pest or weed control at 250 g/ha,[2],20%
same,pest or weed control at 15.625 g/ha,[3],0%
same,pest or weed control at 62.5 g/ha,[3],0%
same,pest or weed control at 250 g/ha,[3],0%
same,plant injury at 15.625 g/ha,corn (Zea mays) [4],0%
same,plant injury at 62.5 g/ha,corn (Zea mays) [4],0%
same,plant injury at 250 g/ha,corn (Zea mays) [4],0%
same,pest or weed control at 15.625 g/ha,[5],0%
same,pest or weed control at 62.5 g/ha,[5],0%
same,pest or weed control at 250 g/ha,[5],80%
same,pest or weed control at 15.625 g/ha,[6],0%
same,pest or weed control at 62.5 g/ha,[6],0%
same,pest or weed control at 250 g/ha,[6],0%
same,pest or weed control at 15.625 g/ha,[7],0%
same,pest or weed control at 62.5 g/ha,[7],0%
same,pest or weed control at 250 g/ha,[7],0%
same,pest or weed control at 15.625 g/ha,[8],0%
same,pest or weed control at 62.5 g/ha,[8],0%
same,pest or weed control at 250 g/ha,[8],70%
same,pest or weed control at 15.625 g/ha,[9],0%
same,pest or weed control at 62.5 g/ha,[9],0%
same,pest or weed control at 250 g/ha,[9],0%
same,plant injury at 15.625 g/ha,corn (Zea mays) [10],0%
same,plant injury at 62.5 g/ha,corn (Zea mays) [10],0%
same,plant injury at 250 g/ha,corn (Zea mays) [10],0%
same,pest or weed control at 15.625 g/ha,[11],0%
same,pest or weed control at 62.5 g/ha,[11],0%
same,pest or weed control at 250 g/ha,[11],80%
same,pest or weed control at 15.625 g/ha,[12],0%
same,pest or weed control at 62.5 g/ha,[12],0%
same,pest or weed control at 250 g/ha,[12],0%
